Consider 24 compounds from patent US11820756B2, “Bradykinin B2 receptor antagonists” (Pharvaris Netherlands B.V., priority 2017, dated 2023).

This assay addresses T1, human bradykinin B2 receptor (hB2R) (Homo sapiens, UniProt P30411).
T1 sequence (P30411 1-391): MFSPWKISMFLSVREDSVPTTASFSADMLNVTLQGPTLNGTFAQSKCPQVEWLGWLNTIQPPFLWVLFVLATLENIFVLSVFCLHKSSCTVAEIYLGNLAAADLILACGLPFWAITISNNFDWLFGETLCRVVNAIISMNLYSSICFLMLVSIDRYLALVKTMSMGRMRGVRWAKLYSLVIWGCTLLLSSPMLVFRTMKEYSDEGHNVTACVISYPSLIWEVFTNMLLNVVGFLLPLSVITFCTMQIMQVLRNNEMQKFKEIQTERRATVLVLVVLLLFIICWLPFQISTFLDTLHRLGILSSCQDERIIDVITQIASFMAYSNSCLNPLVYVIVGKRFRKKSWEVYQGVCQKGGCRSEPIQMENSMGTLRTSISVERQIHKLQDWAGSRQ
Description: cell-based human bradykinin B2 receptor calcium mobilization (hB2R-CaM) assay. The note with it: HTS041C cells, bradykinin at EC80, calcium mobilization; read-out: IC50-value towards human bradykinin B2 receptor (hB2R). An excerpt:
The following cell-based human bradykinin B2 receptor calcium mobilization (hB2R-CaM) assay was used to determine the antagonistic activity of compounds selected from the example compounds Nos. 1 to 168 towards human bradykinin B2 receptor (hB2R). The assay is defined herein as a standard in vitro B2 receptor activity assay, which can be used to determine IC50 values of the compounds according to the present invention, e. g. the compounds shown in Examples 1-11.
The antagonistic activity of compounds according to the present invention was investigated with the hB2R-CaM assay using the B2 Bradykinin Receptor Stable Cell Line HTS041C (Eurofins, St. Charles MO) and the FLIPR Calcium 6 Assay Kit (Molecular Devices, Wokingham, UK) according to the instructions of the providers. CaM assay measurements were performed with a Flexstation 3 System (Molecular Devices) which allows the precise addition of compounds (B2R antagonists) and bradykinin (B2R agonist) to the cells and adjacent continuous recording of the time-dependent CaM assay signals.
HTS041C cells were cultured in high glucose DMEM cell culture medium (Lonza) supplemented with 10% heat-inactivated FBS (PAN Biotech), 10 mM HEPES, Penicillin/Streptomycin (200 U/mL, 200 μg/mL), 1× non-essential amino acids (Lonza), and 250 μg/mL G418 (Invivogen) in cell incubator at 37° C. in a 5% CO2 atmosphere.
One day before the CaM assay experiments cells were seeded in 200 μL DMEM cell culture medium with reduced FBS (5%) and without G418 on clear bottom black 96 well plates (ThermoFisher #165305). Cell starvation was carried out by incubation (37° C., 5% CO2) of 70.000 cells/well for 24 h to 28 h. Immediately prior calcium dye-loading the medium was carefully aspirated and cells were washed with Hank's balanced salt solution (HBSS, Gibco) containing Ca^2+, Mg^2+ and 20 mM HEPES, adjusted to pH 7.4 (HBSS+). Calcium Dye Loading of the Cells:
For calcium dye-loading one FLIPR 6 assay aliquot was dissolved in 20 mL HBSS+. 150 μL of the dye loading solution was added to cell plate and incubated for 120 min at 37° C. and 5% CO2. After dye loading the cell plate was immediately transferred to the pre-warmed (37° C.) Flexstation 3 System for CaM assaying.
Freshly prepared compound (B2 receptor antagonists) dilution series (8 pt, n=2) and bradykinin (B2 receptor agonist) solution in non-binding plates (Costar) were transferred to the Flexstation System (source plate) shortly before starting the experiment. Bradykinin was added in EC80 concentration determined in n>3 preliminary experiments with 8 pt concentration response curves (n=8)). CaM assay was executed by Flexstation 3 System starting with recording of calcium-sensitive dye fluorescence in bottom-read Flex modus with ex/em=485 nm/525 nm, cut off(em)=[…]. After 20 s, 50 μL of 4-fold concentrated compound dilutions were added to the cells resulting in a final DMSO (Sigma) concentration of 0.1% in the cell plate. CaM signals were monitored for 80 s after additions for detection of potential agonistic activities. Prior to bradykinin stimulus compound- and vehicle-treated cells were incubated for 25 min at 37° C. within the Flexstation System. Then 50 μL of a 5-fold concentrated bradykinin solution (HBSS+, 0.1% DMSO) was added to trigger CaM signals (Read out: Max-Min values) which were measured for 80 s post bradykinin stimulus.
IC50 determinations were performed by 4 parameter logistic model curve fitting of the 8 pt (n=2) compound concentration response curves using XLFIT (IDBS) software.
Relative IC50 values of the test compounds were determined with the same hB2R-CaM assay as in Example 12.
(In general: Calcium flux is commonly read through the fluorescence of an indicator in the cells.)
The term IC50 denotes the concentration that inhibits the measured activity by half. For `Cc1cc(-n2cc(F)cn2)c2cccc(OCc3c(Cl)cc(F)cc3[C@H](C)N(C)C(=O)CO)c2n1` [Compound 102], the IC50 is ≤ 50 nM.

`Cc1cc(-n2ncnc2C)c2cccc(OCc3c(Cl)cc(F)cc3[C@H](C)NC(=O)C(C)(F)F)c2n1` [Compound 180]: the IC50 is ≤ 50 nM.

Consider `Cc1cc(-c2ncnn2C)c2cccc(OCc3c(Cl)cc(F)cc3[C@H](C)NC(=O)C3CCCCC3)c2n1` [Compound 144], for which the IC50 was ≤ 50 nM.

In the case of `Cc1cc(-c2ncnn2C)c2cccc(OCc3c(Cl)cc(F)cc3[C@H](C)NC(=O)c3coc(C)n3)c2n1` [Compound 130], the IC50 is ≤ 50 nM.

For the compound `Cc1cc(-n2cc(F)cn2)c2cccc(OCc3c(Cl)cc(F)cc3[C@H](C)NC(=O)[C@H]3CCCO3)c2n1` [Compound 20], the IC50 is ≤ 50 nM.

Consider `Cc1cc(-c2ccnn2C)c2cccc(OCc3c(Cl)cc(F)cc3[C@H](C)NC(=O)CO)c2n1` [Compound 194], for which the IC50 is ≤ 50 nM.

Regarding `[2H][C@@](C)(NC(=O)CC(F)(F)F)c1cc(F)cc(Cl)c1COc1cccc2c(-n3ncnc3C)cc(C)nc12` [Compound 208], the IC50 is ≤ 50 nM.

As for `Cc1cc(-n2cnc(C)n2)c2cccc(OCc3c(Cl)cc(F)cc3[C@H](C)NC(=O)[C@@H](C)O)c2n1` [Compound 98], the IC50 is 251 to 1000 nM.

As for `CC(=O)C(=O)N[C@@H](C)c1cc(F)cc(Cl)c1COc1cccc2c(-n3cc(F)cn3)cc(C)nc12` [Compound 55], the IC50 was in the range of 251 to 1000 nM.

On to `Cc1cc(-n2cc(F)cn2)c2cccc(OCc3c(Cl)cc(F)cc3[C@H](C)NC(=O)C3CNC3)c2n1` [Compound 68], for which the IC50 lay in the range of 51 to 250 nM.

With `Cc1cc(-n2cc(F)cn2)c2cccc(OCc3c(Cl)cc(F)cc3[C@H](C)NC(=O)[C@H]3CCOC3)c2n1` [Compound 15], the IC50 was ≤ 50 nM.

For the compound `Cc1cc(-n2cc(F)cn2)c2cccc(OCc3c(Cl)cc(F)cc3[C@H](C)NC(=O)[C@H]3CCC(=O)N3)c2n1` [Compound 115], the IC50 fell in the range of 51 to 250 nM.

On to `Cc1cc(-n2nc(C)nc2C)c2cccc(OCc3c(Cl)cc(F)cc3[C@H](C)NC(=O)c3coc(C)n3)c2n1` [Compound 137], for which the IC50 was 51 to 250 nM.

For `Cc1cc(-n2nccn2)c2cccc(OCc3c(Cl)cc(F)cc3[C@H](C)NC(=O)[C@H]3CCOC3)c2n1` [Compound 30], the IC50 is ≤ 50 nM.

In the case of `Cc1cc(-n2cc(F)cn2)c2cccc(OCc3c(Cl)cc(F)cc3[C@H](C)NC(=O)c3cccnc3)c2n1` [Compound 124], the IC50 is ≤ 50 nM.

As to `Cc1cc(-n2cc(F)cn2)c2cccc(OCc3c(Cl)cc(F)cc3[C@H](C)NC(=O)c3cncs3)c2n1` [Compound 90], the IC50 is ≤ 50 nM.

As for `Cc1cc(-c2ncnn2C)c2cccc(OCc3c(Cl)cc(F)cc3[C@H](C)NC(=O)[C@@H]3CC[C@H](C)O3)c2n1` [Compound 133], the IC50 is ≤ 50 nM.

In the case of `Cc1cc(-c2ncnn2C)c2cccc(OCc3c(Cl)cc(F)cc3[C@H](C)NC(=O)[C@@H](C)O)c2n1` [Compound 63], the IC50 was ≤ 50 nM.

As to `Cc1cc(-n2cnc(C)n2)c2cccc(OCc3c(Cl)cc(F)cc3[C@H](C)NC(=O)c3cnco3)c2n1` [Compound 96], the IC50 was 51 to 250 nM.

As to `[2H]C([2H])([2H])[C@H](NC(=O)c1cocn1)c1cc(F)cc(Cl)c1COc1cccc2c(-c3ncnn3C)cc(C)nc12` [Compound 200], the IC50 was ≤ 50 nM.

On to `Cc1cc(-n2ncnc2C)c2cccc(OCc3c(Cl)cc(F)cc3[C@H](C)NC(=O)[C@@H](C)O)c2n1` [Compound 97], for which the IC50 lay within 51 to 250 nM.

As for `Cc1cc(-n2cc(F)cn2)c2cccc(OCc3c(Cl)cc(F)cc3[C@H](C)NC(=O)C3CCC(C)(C)O3)c2n1` (stereo partly drawn) [Compound 109], the concentration for half-maximal inhibition (IC50) lay in the range of 51 to 250 nM.

Turning to `Cc1cc(-c2ncnn2C)c2cccc(OCc3c(Cl)cc(F)cc3[C@H](C)NC(=O)c3ccon3)c2n1` [Compound 122], the IC50 was ≤ 50 nM.

Regarding `CCc1ncnn1-c1cc(C)nc2c(OCc3c(Cl)cc(F)cc3[C@H](C)NC(=O)C(C)F)cccc12` (stereo partly drawn) [Compound 172], the IC50 was ≤ 50 nM.
